Measurements as given in ChEMBL document CHEMBL3822366, “Design, synthesis and anticancer activity of novel hybrid compounds between benzofuran and N-aryl piperazine” (Bioorg Med Chem Lett, 2016).

Legend:
A549 = experiment: Cytotoxicity against human A549 cells after 48 hrs by MTT assay; format: functional, cell-based; conditions: A549, 48 h
HeLa = experiment: Cytotoxicity against human HeLa cells after 48 hrs by MTT assay; format: functional, cell-based
MCF7 = experiment: Cytotoxicity against human MCF7 cells after 48 hrs by MTT assay; format: functional, cell-based; conditions: MCF7, 48 h
[1] = Cytotoxicity against human SGC7901 cells after 48 hrs by MTT assay; format: functional, cell-based; conditions: SGC-7901, 48 h
[2] = Cytotoxicity against human L02 cells at <40 uM after 48 hrs by MTT assay; format: cell-based; conditions: l02, 48 h

| SMILES | IC50 (A549) | IC50 (HeLa) | IC50 (MCF7) | IC50 [1] | Activity [2] |
| --- | --- | --- | --- | --- | --- |
| CCN(CC)c1ccc2cc(C(=O)c3ccc(N4CCN(C(=O)c5ccccc5Cl)CC4)cc3)oc2c1 | 6.11 µM | 0.34 µM | 26.3 µM | 12 µM | – |
| CCN(CC)c1ccc2cc(C(=O)c3ccc(N4CCN(C(=O)COc5ccc(Cl)cc5Cl)CC4)cc3)oc2c1 | 5.73 µM | 0.03 µM | 12.4 µM | 6.17 µM | Non-toxic |
| CCN(CC)c1ccc2cc(C(=O)c3ccc(N4CCN(C(=O)c5ccc(Cl)c(Cl)c5)CC4)cc3)oc2c1 | 0.22 µM | 15.2 µM | 8.08 µM | 5.84 µM | – |
| CCN(CC)c1ccc2cc(C(=O)c3ccc(N4CCN(S(C)(=O)=O)CC4)cc3)oc2c1 | > 40 µM | > 40 µM | > 40 µM | > 40 µM | – |
| CCN(CC)c1ccc2cc(C(=O)c3ccc(N4CCN(S(=O)(=O)c5ccc(C(F)(F)F)cc5)CC4)cc3)oc2c1 | 11.1 µM | 9.72 µM | > 40 µM | 0.17 µM | – |
| CCN(CC)c1ccc2cc(C(=O)c3ccc(N4CCN(C(C)=O)CC4)cc3)oc2c1 | 30.1 µM | 5.15 µM | 16.2 µM | 25.6 µM | – |
| CCN(CC)c1ccc2cc(C(=O)c3ccc(N4CCN(C(=O)c5ccc([N+](=O)[O-])c([N+](=O)[O-])c5)CC4)cc3)oc2c1 | > 40 µM | 25.2 µM | 19.6 µM | > 40 µM | – |
| CCN(CC)c1ccc2cc(C(=O)c3ccc(N4CCN(S(=O)(=O)c5ccc(Br)c(F)c5)CC4)cc3)oc2c1 | 15.1 µM | 20.7 µM | 2.27 µM | > 40 µM | – |
| CCOC(=O)N1CCN(c2ccc(C(=O)c3cc4ccc(N(CC)CC)cc4o3)cc2)CC1 | > 40 µM | 20.3 µM | > 40 µM | > 40 µM | – |
| CCN(CC)c1ccc2cc(C(=O)c3ccc(N4CCN(C(=O)c5ccc(Br)cc5F)CC4)cc3)oc2c1 | 20.4 µM | 0.53 µM | > 40 µM | 13.5 µM | – |
| CCN(CC)c1ccc2cc(C(=O)c3ccc(N4CCN(S(=O)(=O)c5ccc(C)cc5)CC4)cc3)oc2c1 | > 40 µM | 37.8 µM | > 40 µM | > 40 µM | – |
| CCN(CC)c1ccc2cc(C(=O)c3ccc(N4CCN(S(=O)(=O)c5ccc([N+](=O)[O-])cc5)CC4)cc3)oc2c1 | 24.4 µM | > 40 µM | > 40 µM | 1.86 µM | – |
| CCN(CC)c1ccc2cc(C(=O)c3ccc(N4CCN(S(=O)(=O)c5ccc(Br)cc5)CC4)cc3)oc2c1 | 34.3 µM | > 40 µM | 26.1 µM | > 40 µM | – |
| CCN(CC)c1ccc2cc(C(=O)c3ccc(N4CCN(S(=O)(=O)c5ccc(F)cc5)CC4)cc3)oc2c1 | 16.4 µM | 21.6 µM | 21.7 µM | > 40 µM | – |
| CCN(CC)c1ccc2cc(C(=O)c3ccc(N4CCN(C(=O)c5cccc(C(F)(F)F)c5)CC4)cc3)oc2c1 | 9.27 µM | 0.4 µM | 34.1 µM | 11.3 µM | – |
| CCN(CC)c1ccc2cc(C(=O)c3ccc(N4CCN(C(=O)c5ccccc5)CC4)cc3)oc2c1 | > 40 µM | 15.2 µM | > 40 µM | > 40 µM | – |
